Legend:
Format in all cases: cell-based
human P2X2/3 receptors = target: T1, human P2X2/3 receptors (Homo sapiens, UniProt P56373+Q9UBL9); assay: Intracellular calcium measurement, antagonist activity at human P2X2/3 receptors (hP2X23 1321N1), Fluo8; conditions: for IC50: column 4); 1321N1 cells, human P2X2/3, Fluo8, agonist ATP at EC50; read-out: 4) hP2X2/3 IC50 [nM] (1321N1); for hP2X23/hP2X3* Selectivity (1321N1): ratio of column 4) hP2X2/3 to column 3) hP2X3, 1321N1
T1 construct: expressed in transfected cells; host or cells: human astrocytoma 1321N1 (1312N1 [sic])
T1 sequence (P56373 1-397): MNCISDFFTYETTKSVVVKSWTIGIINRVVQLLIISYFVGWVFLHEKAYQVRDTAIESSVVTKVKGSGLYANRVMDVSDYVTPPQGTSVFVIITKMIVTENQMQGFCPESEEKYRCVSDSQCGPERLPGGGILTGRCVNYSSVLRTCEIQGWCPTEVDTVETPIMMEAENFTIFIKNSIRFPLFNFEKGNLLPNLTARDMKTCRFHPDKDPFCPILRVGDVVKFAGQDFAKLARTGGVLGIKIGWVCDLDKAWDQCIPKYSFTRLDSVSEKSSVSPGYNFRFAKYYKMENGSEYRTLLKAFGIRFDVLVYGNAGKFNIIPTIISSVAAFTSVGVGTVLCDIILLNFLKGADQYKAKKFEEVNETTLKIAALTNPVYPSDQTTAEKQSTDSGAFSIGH
T1 sequence (Q9UBL9 1-471): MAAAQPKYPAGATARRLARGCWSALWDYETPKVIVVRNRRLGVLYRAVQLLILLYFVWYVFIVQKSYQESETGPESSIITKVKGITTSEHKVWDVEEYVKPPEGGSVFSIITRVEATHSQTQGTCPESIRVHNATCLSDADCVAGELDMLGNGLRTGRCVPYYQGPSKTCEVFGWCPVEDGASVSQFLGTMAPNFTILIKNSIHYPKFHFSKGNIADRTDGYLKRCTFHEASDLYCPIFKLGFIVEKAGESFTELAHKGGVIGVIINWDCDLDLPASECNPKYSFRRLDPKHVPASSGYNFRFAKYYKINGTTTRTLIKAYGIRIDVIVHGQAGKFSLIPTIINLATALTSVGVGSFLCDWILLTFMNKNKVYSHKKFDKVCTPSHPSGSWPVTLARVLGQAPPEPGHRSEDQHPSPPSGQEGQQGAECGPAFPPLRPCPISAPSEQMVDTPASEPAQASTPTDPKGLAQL
Method in brief: (§1)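 Antagonism was assessed by decrease of the Fluo8 calcium signal after ATP challenge, with ATP dosed at the EC50 of whichever receptor was tested. Stable 1321N1 astrocytoma lines expressed either human P2X3 or both P2X2 and P2X3, and were dye-loaded 60 min before a 10 min compound incubation.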

human P2X3 receptor [1] = target: T2, human P2X3 receptor (Homo sapiens, UniProt P56373); assay: Intracellular calcium measurement to assess antagonist activity at human P2X3 receptors (hP2X3 CHO), photina luminescence; set-up: expressed in transfected cells; host or cells: Chinese hamster ovary (CHO) cells; conditions: column 2), CHO cells, agonist α,β-methylene-ATP at EC50
T2 sequence (P56373 1-397): T1 sequence (P56373 1-397)
Method in brief: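 Antagonism read as lowered photina luminescence after agonist stimulation in recombinant hP2X3/photina CHO cells. Cells seeded one day earlier (30 °C) and reconstituted with 5 μg/ml coelenterazine in 2 mM Ca-tyrode buffer for 3 h at 37 °C before measurement.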

human P2X3 receptor [2] = target: T2, human P2X3 receptor; assay: Intracellular calcium measurement to assess antagonist activity at human P2X3 receptors (hP2X3 FLIPR); set-up: expressed in transfected cells; host or cells: human astrocytoma 1321N1 (1312N1 [sic]); conditions: head prints (1321N1); read-out: 1) hP2X3 IC50 [nM] (1321N1)
Experimental: 1) Intracellular Calcium Measurement to Assess Antagonist Activity at Human P2X3 Receptors (hP2X3 FLIPR)
A fluorescent imaging plate reader (FLEX/FLIPR station; Molecular Devices) was used to monitor intracellular calcium levels using the calcium-chelating dye Fluo-4 (Molecular Probes). The excitation and emission wavelengths used to monitor fluorescence were 470-495 nm and 515-575 nm, respectively. The human astrocytoma […] cells expressing purinergic receptors P2X3 (human) were plated at a density of 15,000 cells/well in collagen—coated 384-well plates approximately 20 hours before beginning the assay. […] The dye supernatant was removed and replaced with 45 μl probenecid buffer (Hank's balanced salt solution, 20 mM HEPES, 0.5 mM CaCl2, 0.5 mM MgCl2, 0.1% BSA, 5 mM probenecid, 10 mM D-glucose monohydrate, pH=7.4). The test compounds were added in a volume of 5 μl and allowed to incubate for 30 min at 37° C. The final assay DMSO concentration is 1%. […] The fluorescence was measured for an interval of 90 sec at 2 sec intervals and analyzed based on the increase in peak relative fluorescence units (RFU) compared to the basal fluorescence. Peak fluorescence was used to determine the response to agonist obtained at each concentration of test compound by the following equation: Response=100*(RFU(test compound)−RFU(control))/(RFU(DMSO)−RFU(control))
The Examples were tested in triplicates per plate and mean values were plotted in Excel XLFit to determine IC50 values at the human P2X3 and human P2X2/3 receptors, percentage of maximal inhibition and the Hill coefficients.

human P2X3 receptor [3] = target: T2, human P2X3 receptor; assay: Intracellular calcium measurement, antagonist activity at human P2X3 receptors (hP2X3 1321N1), Fluo8; set-up: expressed in transfected cells; host or cells: human astrocytoma 1321N1 (1312N1 [sic]); conditions: column 3); 1321N1 cells, human P2X3, Fluo8, agonist ATP at EC50
Method in brief: as §1

Row | SMILES | IC50 (human P2X2/3 receptors) [nM] | hP2X23/hP2X3* Selectivity (1321N1) (human P2X2/3 receptors) | IC50 (human P2X3 receptor [1]) [nM] | IC50 (human P2X3 receptor [2]) [nM] | IC50 (human P2X3 receptor [3]) [nM]
1 | CC[C@H](C)N1Cc2c(n(CC(=O)Nc3ccc(C)cn3)c3cc(C(F)(F)F)nn3c2=O)C1=O [Example 21] | 12400 | 53 | 180 | 164 | 233
2 | COCC(C)N1Cc2c(n(CC(=O)Nc3ccc(F)cn3)c3cc(Br)nn3c2=O)C1=O (stereo not drawn) [Example 36, 2-[2-bromo-6-(1-methoxypropan-2-yl)-5,8-dioxo-5,6,7,8-tetrahydro-4H-pyrazolo[1,5-a]pyrrolo[3,4-d]pyrimidin-4-yl]-N-(5-fluoropyridin-2-yl)acetamide] | > 20900 | >368 | 44 | 34 | 57
3 | Cc1cc2n(CC(=O)Nc3ccc(F)cn3)c3c(c(=O)n2n1)CN(C(C)C)C3=O [Example 23] | > 20600 | >11134 | 64 | 80 | 153
4 | COC[C@H](C)N1Cc2c(n(CC(=O)Nc3ccc(F)cn3)c3cc(C)nn3c2=O)C1=O [Example 41] | > 32000 | >393 | 51 | 55 | 82
5 | CCc1cc2n(CC(=O)Nc3ccc(F)cn3)c3c(c(=O)n2n1)CN([C@@H](C)COC)C3=O [Example 46] | 14000 | 385 | 59 | 28 | 36
6 | CC(C)(C)c1cc2n(CC(=O)Nc3ccc(F)cn3)c3c(c(=O)n2n1)CN(CCO)C3=O [Example 135, 2-[2-tert-butyl-6-(2-hydroxyethyl)-5,8-dioxo-5,6,7,8-tetrahydro-4H-pyrazolo[1,5-a]pyrrolo[3,4-d]pyrimidin-4-yl]-N-(5-fluoropyridin-2-yl)acetamide] | 6850 | 58 | 59 | 40 | 119
7 | CC(C)(C)c1cc2n(CC(=O)Nc3ccc(F)cn3)c3c(c(=O)n2n1)CN(C1COC1)C3=O [Example 27] | > 21000 | >102 | 118 | 95 | 205
8 | CC(C)(C)c1cc2n(CC(=O)Nc3ccc(F)cn3)c3c(c(=O)n2n1)CN(CC1CC1)C3=O [Example 13] | 5650 | 212 | 51 | 21 | 27
9 | CC(C)(C)c1cc2n(CC(=O)Nc3ccc(F)cn3)c3c(c(=O)n2n1)CN(C1CCOCC1)C3=O [Example 33] | > 21500 | >72 | 165 | 276 | 297
10 | COC[C@@H](C)N1Cc2c(n(CC(=O)Nc3ccc(F)cn3)c3cc(C)nn3c2=O)C1=O [Example 52] | > 23000 | >324 | 43 | 52 | 71
11 | COCC(C)N1Cc2c(n(CC(=O)Nc3ccc(F)cn3)c3cc(CO)nn3c2=O)C1=O (racemic) [Example 141, N-(5-fluoropyridin-2-yl)-2-{2-(hydroxymethyl)-6-[(±)-1-methoxypropan-2-yl]-5,8-dioxo-5,6,7,8-tetrahydro-4H-pyrazolo[1,5-a]pyrrolo[3,4-d]pyrimidin-4-yl}acetamide] |  |  |  | 125 | 

— patent US11319324B2, “Pyrazolo-pyrrolo-pyrimidine-dione derivatives as P2X3 inhibitors” (Bayer Aktiengesellschaft, priority 2017, dated 2022)
